Measurements: ChEMBL document CHEMBL5120961, “N-Arylimidazoliums as Highly Selective Biomimetic Antimicrobial Agents” (J Med Chem, 2022)
In brackets after ≈: the same amount, converted by molar mass. Activity calls are given as the source filed them. The rule behind the calls is not given here.

Tests used:
[1] = test system: Enterococcus faecalis; assay: Antibacterial activity against Enterococcus faecalis ATCC 29212 assessed as inhibition of bacterial growth incubated for 16 to 18 hrs by broth microdilution method; assay type: functional; settings: time 16-18 hrs
[2] = test system: Staphylococcus aureus; assay: Inhibition of biofilm formation in methicillin-resistant Staphylococcus aureus ATCC 43300 incubated for 24 hrs under stationary conditions by crystal violet staining based analysis; assay type: functional, organism-based
[3] = test system: Staphylococcus aureus; assay: Disruption of established biofilm in methicillin-resistant Staphylococcus aureus ATCC 43300 assessed as reduction of relative biofilm mass at 128XMIC incubated for 24 hrs by crystal violet staining based analysis; assay type: functional
[4] = test system: Staphylococcus aureus; assay: Antibacterial activity against methicillin-resistant Staphylococcus aureus ATCC 43300 infected in BALB/c mouse assessed as reduction of histopathological changes of pulmonary tissue at 4 mg/kg, iv administered at 1, 6, 25 and 30 hrs post-infection and measured on day 7 post-infection by hematoxylin-eosin staining based analysis; assay type: functional, organism-based; settings: time 7.0 day
[5] = test system: Staphylococcus aureus; assay: Antibacterial activity against methicillin-resistant Staphylococcus aureus ATCC 43300 assessed as inhibition of bacterial growth incubated for 16 to 18 hrs by broth microdilution method; assay type: functional; settings: time 16-18 hrs
[6] = test system: Staphylococcus aureus; assay: Antibacterial activity against Staphylococcus aureus ATCC 25923 assessed as inhibition of bacterial growth incubated for 16 to 18 hrs by broth microdilution method; assay type: functional; settings: time 16-18 hrs
[7] = test system: Escherichia coli; assay: Antibacterial activity against Escherichia coli ATCC 25922 assessed as inhibition of bacterial growth incubated for 16 to 18 hrs by broth microdilution method; assay type: functional; settings: time 16-18 hrs
[8] = test system: Erythrocyte; assay: Hemolytic activity in rabbit erythrocytes incubated for 1 hr; assay type: toxicity, cell-based, Oryctolagus cuniculus
[9] = Selectivity ratio of HC5 for hemolytic activity in rabbit erythrocytes to MIC for antibacterial activity against methicillin-resistant Staphylococcus aureus ATCC 43300; assay type: toxicity, cell-based

SMILES	MIC [1] [µg/mL]	inhibition [2]	inhibition (INH) [3] [%]	Activity [4]	MIC [5] [µg/mL]	MIC [6] [µg/mL]	MIC [7] [µg/mL]	HC5 [8] [µg/mL]	selectivity ratio [9]
CN[C@H](CC(C)C)C(=O)N[C@H]1C(=O)N[C@@H](CC(N)=O)C(=O)N[C@H]2C(=O)N[C@H]3C(=O)N[C@H](C(=O)N[C@H](C(=O)O)c4cc(O)cc(O)c4-c4cc3ccc4O)[C@H](O)c3ccc(c(Cl)c3)Oc3cc2cc(c3O[C@@H]2O[C@H](CO)[C@@H](O)[C@H](O)[C@H]2O[C@H]2C[C@](C)(N)[C@H](O)[C@H](C)O2)Oc2ccc(cc2Cl)[C@H]1O [VANCOMYCIN]	1 (≈ 0.69 µM)	Active	37	Active	–	–	–	–	–
CC[n+]1ccn(-c2ccc(C#Cc3ccc(-n4cc[n+](CC)c4)cc3)cc2)c1.[Br-].[Br-]	–	–	–	–	64	64	8	8000	125
CCCC[n+]1ccn(-c2ccc(C#Cc3ccc(-n4cc[n+](CCCC)c4)cc3)cc2)c1.[Br-].[Br-]	–	–	–	–	4	2	8	2000	500
CCCCCC[n+]1ccn(-c2ccc(/C=C/c3ccc(-n4cc[n+](CCCCCC)c4)cc3)cc2)c1.[Br-].[Br-]	–	–	–	–	1	1	2	600	600
CCCCCC[n+]1ccn(CCCCn2cc[n+](CCCCCC)c2)c1.[Br-].[Br-]	–	–	–	–	500	125	125	8000	16
CCCCCCCC[n+]1ccn(CCCCn2cc[n+](CCCCCCCC)c2)c1.[Br-].[Br-]	–	–	–	–	8	4	32	400	50
CCCCCC[n+]1ccn(-c2ccc(CCc3ccc(-n4cc[n+](CCCCCC)c4)cc3)cc2)c1.[Br-].[Br-]	–	–	–	–	1	0.5	4	1000	1000
